Source: US6818669B2, “Increasing cerebral bioavailability of drugs” (Enos Pharmaceuticals, Inc., priority 1999, dated 2004)

What was measured:
[1] = tested on: wild type mice; test: Regional cerebral blood flow (rCBF) by laser-Doppler flowimetry after L-arginine infusion, wild type and simvastatin-treated mice; format: in vivo
From the text: (§1) The number of mice in each group is indicated in parenthesis.

[2] = Uptake of tritium labeled Dizocilpine in MCA territory after MCA occlusion (Example 6, autoradiography); format: in vivo, mice; settings: L-arginine 400 mg/kg infusion over 10 min acutely or Simvastatin SC 3 weeks, Example 6 written in present tense
Method: 4 groups of mice receive the following treatments by SQ administration for 3 weeks, followed on day 22 by a surgery where an MCA occlusion is induced by an insertion of a modified 8-0 suture. […] Thereafter the mice are sacrificed at 15 and 30 minutes, and the brain tissue is frozen and sectioned and then analyzed by autoradiographic methods to quantitate the amount of radiolabeled compound present within the MCA territory on the side of occlusion.
1) 2 groups of saline SC injection over 3 weeks
a) 1 group after surgery received radio labeled Dizocilpine
2) 2 groups of Simvastain SC injection over 3 weeks

[3] = tested on: mutant mice deficient in endothelial nitric oxide synthase (eNOS null); test: Regional cerebral blood flow (rCBF) by laser-Doppler flowimetry after L-arginine infusion, eNOS null mice; format: in vivo; settings: L-arginine 450 mg/kg i.v.
From the text: as §1

[4] = mouse, in vivo
[5] = L-arginine infusion in simvastatin-treated mice
[6] = wild type mice, L-arginine 450 mg/kg i.v.

Row | SMILES | elevations in regional cerebral blood flow (RCBF) ([1]; L-arginine 300 mg/kg i.v., preliminary experiments n=4, modest and variable) [%] | additional time for which rCBF increases sustained [1, 5] [min] | time of maximum rCBF increase [1, 5] [min] | maximum rCBF increase over simvastatin baseline ([1]; L-arginine infusion in simvastatin-treated mice, at 15-20 min) | increase in blood flow in the 30-40 minute epoch, simvastatin treated compared to non treated control ([1]; L-arginine infusion, P<0.05) | time at which increase in RCBF began [1, 6] [min] | time of maximum rCBF values [1, 6] [min] | time at which RCBF increase achieved statistical significance ([1]; wild type mice, L-arginine 450 mg/kg i.v., after infusion) [min] | maximum rCBF increase above baseline ([1]; wild type mice, L-arginine 450 mg/kg i.v., parietal cortex, at 20-25 min) [%] | uptake of Dizocilpine within the underperfused brain [2] | rCBF change during the 40 minute recording period [3] | rCBF response (in words) [3] | blood pH after infusion (in words) [4] | increase of baseline rCBF ([1]; after chronic daily administration of simvastatin alone) [%]
1 | N=C(N)NCCC[C@H](N)C(=O)O [L-arginine] | 10 | 20 | 15 to 20 | 29-31% | larger | 5 to 10 | 20 to 25 | 10 to 15 | 26 | higher uptake | −4 to +5% | did not increase rCBF | lower | 
2 | CCC(C)(C)C(=O)O[C@H]1C[C@@H](C)C=C2C=C[C@H](C)[C@H](CC[C@@H]3C[C@@H](O)CC(=O)O3)[C@H]21 [simvastatin] |  |  |  |  |  |  |  |  |  |  |  |  |  | 25
